Results from patent EP4745137A1 (Gluetacs Therapeutics (Shanghai) Co., Ltd., priority 2023, dated 2025).
Read-outs that look alike come from different tables or passages of the source.

Tests used:
WEE1 = target: T1, WEE1 (Homo sapiens, UniProt P30291+Q96SW2); experiment: Western-blot assay of substrate protein degradation in hPBMCs, WEE1; format: cell-based; conditions: 24 hours of compound treatment, 50 nM and 500 nM tested (concentration behind the class not stated)
T1 construct: endogenous in cells; host or cells: hPBMCs (Milecell Biotechnologies)

IKZF1 = target: T2, IKZF1 (Homo sapiens, UniProt Q13422+Q96SW2); experiment: Western-blot assay of substrate protein degradation in hPBMCs, IKZF1; format: cell-based; conditions: 24 hours of compound treatment, 50 nM and 500 nM tested (concentration behind the class not stated)
T2 construct: endogenous in cells; host or cells: hPBMCs (Milecell Biotechnologies)

IKZF2 = target: T3, IKZF2 (Homo sapiens, UniProt Q96SW2+Q9UKS7); experiment: Western-blot assay of substrate protein degradation in hPBMCs, IKZF2; format: cell-based; conditions: 24 hours of compound treatment, 50 nM and 500 nM tested (concentration behind the class not stated)
T3 construct: endogenous in cells; host or cells: hPBMCs (Milecell Biotechnologies)

IKZF3 = target: T4, IKZF3 (Homo sapiens, UniProt Q96SW2+Q9UKT9); experiment: Western-blot assay of substrate protein degradation in hPBMCs, IKZF3; format: cell-based; conditions: 24 hours of compound treatment, 50 nM and 500 nM tested (concentration behind the class not stated)
T4 construct: endogenous in cells; host or cells: hPBMCs (Milecell Biotechnologies)

CK1α = target: T5, CK1α (Homo sapiens, UniProt P48729+Q96SW2); experiment: Western-blot assay of substrate protein degradation in hPBMCs, CK1α; format: cell-based; conditions: 24 hours of compound treatment, 50 nM and 500 nM tested (concentration behind the class not stated)
T5 construct: endogenous in cells; host or cells: hPBMCs (Milecell Biotechnologies)

GSPT1 = target: T6, GSPT1 (Homo sapiens, UniProt P15170+Q96SW2); experiment: Western-blot assay of substrate protein degradation in hPBMCs, GSPT1; format: cell-based; conditions: 24 hours of compound treatment, 50 nM and 500 nM tested (concentration behind the class not stated)
T6 construct: endogenous in cells; host or cells: hPBMCs (Milecell Biotechnologies)

[1] = target: T7, human Cereblon WT GST-tagged protein (Homo sapiens, UniProt Q96SW2); experiment: CRBN-binding affinity by HTRF (CEREBLON BINDING kit); conditions: HTRF inhibitory activity, CEREBLON BINDING kit; read-out: HTRF IC50
T7 construct: purchased CISBIO 64BDCRBNPEH

MM.1S = experiment: Tumor cell proliferation inhibition (CellTiter-Meiluncell Luminescent Cell Viability Assay), MM.1S; conditions: Homo sapiens, MM1.S, read-out: inhibitory activity (IC50, nM) against tumor cells proliferation, MM.1S
Jurkat = experiment: Tumor cell proliferation inhibition (CellTiter-Meiluncell Luminescent Cell Viability Assay), Jurkat; conditions: Homo sapiens, read-out: inhibitory activity (IC50, nM) against tumor cells proliferation, Jurkat
Protocol: (§1) The tumor cells used herein were cultured in a cell culture medium listed in table 2 at 37°C in an incubator with 5% CO2. Prior to experimentation, all cell lines used were correctly identified by STR profiling, and tested negative for mycoplasma contamination using a mycoplasma detection kit through routine screenings.
(§2) On the following day, the test compounds of the present disclosure were subjected to serial dilution. […] Subsequently, 0.5 µL of the test compound dilution was transferred into the 96-well plate containing the cells, with each well containing 100 µL of cell culture medium. […] Into the 96-well plate, the diluted test compounds and corresponding detection reagents were added, resulting in final test compound concentrations of 500 nM and 10 nM, respectively. The experimental procedure is described below using the diluted 2 µM test compound as an example.
(§3) After the cells were treated with the compounds of the present disclosure for a specified period (the treatment durations were shown in Table 3), the cell viability assay reagent was added to the culture medium according to the kit's instructions to determine cell viability. […] All controls were treated using the same procedure as the compounds of the present disclosure. The growth inhibition curves for the compounds of the present disclosure were plotted using Prism GraphPad software, and the IC50 values were calculated therefrom.

[2] = test system: Human acute T lymphocytic leukemia cells (Molt-4); experiment: Tumor cell proliferation inhibition (CellTiter-Meiluncell Luminescent Cell Viability Assay), Molt-4
MV-4-11 = experiment: Tumor cell proliferation inhibition (CellTiter-Meiluncell Luminescent Cell Viability Assay), MV-4-11; conditions: Homo sapiens, MV4-11, read-out: inhibitory activity (IC50, nM) against tumor cells proliferation, MV-4-11
Protocol: as §1
(§4) On the following day, the test compounds of the present disclosure were subjected to serial dilution. […] Subsequently, 0.5 µL of the test compound dilution was transferred into the 96-well plate containing the cells, with each well containing 100 µL of cell culture medium. […] Into the 96-well plate, the diluted test compounds and corresponding detection reagents were added, resulting in final test compound concentrations of 500 nM and 10 nM, respectively.
as §3

CCRF-CEM = experiment: Tumor cell proliferation inhibition (CellTiter-Meiluncell Luminescent Cell Viability Assay), CCRF-CEM; conditions: Homo sapiens; for IC50: read-out: inhibitory activity (IC50, nM) against tumor cells proliferation, CCRF-CEM
NCI-H1975 = experiment: Tumor cell proliferation inhibition (CellTiter-Meiluncell Luminescent Cell Viability Assay), NCI-H1975; conditions: Homo sapiens
SR = experiment: Tumor cell proliferation inhibition (CellTiter-Meiluncell Luminescent Cell Viability Assay), SR; conditions: Homo sapiens, read-out: inhibitory activity (IC50, nM) against tumor cells proliferation, SR
Protocol: as §1, §4, §3

TMD8 = experiment: Tumor cell proliferation inhibition (CellTiter-Meiluncell Luminescent Cell Viability Assay), TMD8; conditions: Homo sapiens
Kasumi-1 = experiment: Tumor cell proliferation inhibition (CellTiter-Meiluncell Luminescent Cell Viability Assay), Kasumi-1; conditions: Homo sapiens
Protocol: as §2, §3

[3] = test system: Human breast cancer cells (MDA-MB-231); experiment: Tumor cell proliferation inhibition (CellTiter-Meiluncell Luminescent Cell Viability Assay), MDA-MB-231
Vcap = experiment: Tumor cell proliferation inhibition (CellTiter-Meiluncell Luminescent Cell Viability Assay), Vcap; conditions: Homo sapiens, 96 h, read-out: inhibitory activity (IC50, nM) against tumor cells proliferation, Vcap
MM.1R = experiment: Tumor cell proliferation inhibition (CellTiter-Meiluncell Luminescent Cell Viability Assay), MM.1R; conditions: Homo sapiens, 96 h, read-out: inhibitory activity (IC50, nM) against tumor cells proliferation, MM.1R
SW620 = experiment: Tumor cell proliferation inhibition (CellTiter-Meiluncell Luminescent Cell Viability Assay), SW620; conditions: Homo sapiens, SW-620, 96 h, read-out: inhibitory activity (IC50, nM) against tumor cells proliferation, SW620
CAL-62 = experiment: Tumor cell proliferation inhibition (CellTiter-Meiluncell Luminescent Cell Viability Assay), CAL-62; conditions: Homo sapiens, CAL-62, 96 h, read-out: inhibitory activity (IC50, nM) against tumor cells proliferation, CAL-62
MGC803 = experiment: Tumor cell proliferation inhibition (CellTiter-Meiluncell Luminescent Cell Viability Assay), MGC803; conditions: Homo sapiens, MGC-803, 96 h, read-out: inhibitory activity (IC50, nM) against tumor cells proliferation, MGC803
[4] = MOLT-4, read-out: inhibitory activity (IC50, nM) against tumor cells proliferation, Molt-4
[5] = NCI-H1975, read-out: inhibitory activity (IC50, nM) against tumor cells proliferation, H1975
[6] = TMD8, read-out: inhibitory activity (IC50, nM) against tumor cells proliferation, TMD8

T1 sequence (P30291 whole entry): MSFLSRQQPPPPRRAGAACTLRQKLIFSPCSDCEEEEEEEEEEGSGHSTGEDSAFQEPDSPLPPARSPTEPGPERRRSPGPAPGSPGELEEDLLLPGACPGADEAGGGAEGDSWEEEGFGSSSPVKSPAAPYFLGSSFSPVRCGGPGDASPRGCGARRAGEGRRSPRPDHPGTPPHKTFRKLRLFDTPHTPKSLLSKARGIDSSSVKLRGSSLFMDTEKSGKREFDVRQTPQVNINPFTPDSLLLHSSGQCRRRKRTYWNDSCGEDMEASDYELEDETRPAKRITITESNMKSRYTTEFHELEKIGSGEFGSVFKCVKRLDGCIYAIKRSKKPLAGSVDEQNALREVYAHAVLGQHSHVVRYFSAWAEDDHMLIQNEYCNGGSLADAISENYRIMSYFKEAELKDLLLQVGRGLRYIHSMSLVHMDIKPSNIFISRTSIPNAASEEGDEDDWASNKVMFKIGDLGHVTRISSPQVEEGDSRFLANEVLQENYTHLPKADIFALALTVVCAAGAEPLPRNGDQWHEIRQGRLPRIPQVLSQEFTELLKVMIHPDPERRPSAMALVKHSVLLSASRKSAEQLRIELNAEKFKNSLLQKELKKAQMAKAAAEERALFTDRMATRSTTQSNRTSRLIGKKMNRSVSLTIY
T1 sequence (Q96SW2 whole entry): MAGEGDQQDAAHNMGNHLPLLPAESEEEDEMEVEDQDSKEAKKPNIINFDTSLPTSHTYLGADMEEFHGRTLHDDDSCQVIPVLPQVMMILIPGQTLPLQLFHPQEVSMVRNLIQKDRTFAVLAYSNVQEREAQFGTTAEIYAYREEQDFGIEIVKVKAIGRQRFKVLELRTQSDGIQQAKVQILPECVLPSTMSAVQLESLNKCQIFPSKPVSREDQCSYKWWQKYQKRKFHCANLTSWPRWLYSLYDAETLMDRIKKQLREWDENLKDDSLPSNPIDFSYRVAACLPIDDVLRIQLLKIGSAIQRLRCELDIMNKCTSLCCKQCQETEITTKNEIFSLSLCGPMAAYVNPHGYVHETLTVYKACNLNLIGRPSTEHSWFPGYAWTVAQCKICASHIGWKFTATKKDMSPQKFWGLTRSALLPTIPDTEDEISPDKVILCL
T1 sequence (Q16531 whole entry partner): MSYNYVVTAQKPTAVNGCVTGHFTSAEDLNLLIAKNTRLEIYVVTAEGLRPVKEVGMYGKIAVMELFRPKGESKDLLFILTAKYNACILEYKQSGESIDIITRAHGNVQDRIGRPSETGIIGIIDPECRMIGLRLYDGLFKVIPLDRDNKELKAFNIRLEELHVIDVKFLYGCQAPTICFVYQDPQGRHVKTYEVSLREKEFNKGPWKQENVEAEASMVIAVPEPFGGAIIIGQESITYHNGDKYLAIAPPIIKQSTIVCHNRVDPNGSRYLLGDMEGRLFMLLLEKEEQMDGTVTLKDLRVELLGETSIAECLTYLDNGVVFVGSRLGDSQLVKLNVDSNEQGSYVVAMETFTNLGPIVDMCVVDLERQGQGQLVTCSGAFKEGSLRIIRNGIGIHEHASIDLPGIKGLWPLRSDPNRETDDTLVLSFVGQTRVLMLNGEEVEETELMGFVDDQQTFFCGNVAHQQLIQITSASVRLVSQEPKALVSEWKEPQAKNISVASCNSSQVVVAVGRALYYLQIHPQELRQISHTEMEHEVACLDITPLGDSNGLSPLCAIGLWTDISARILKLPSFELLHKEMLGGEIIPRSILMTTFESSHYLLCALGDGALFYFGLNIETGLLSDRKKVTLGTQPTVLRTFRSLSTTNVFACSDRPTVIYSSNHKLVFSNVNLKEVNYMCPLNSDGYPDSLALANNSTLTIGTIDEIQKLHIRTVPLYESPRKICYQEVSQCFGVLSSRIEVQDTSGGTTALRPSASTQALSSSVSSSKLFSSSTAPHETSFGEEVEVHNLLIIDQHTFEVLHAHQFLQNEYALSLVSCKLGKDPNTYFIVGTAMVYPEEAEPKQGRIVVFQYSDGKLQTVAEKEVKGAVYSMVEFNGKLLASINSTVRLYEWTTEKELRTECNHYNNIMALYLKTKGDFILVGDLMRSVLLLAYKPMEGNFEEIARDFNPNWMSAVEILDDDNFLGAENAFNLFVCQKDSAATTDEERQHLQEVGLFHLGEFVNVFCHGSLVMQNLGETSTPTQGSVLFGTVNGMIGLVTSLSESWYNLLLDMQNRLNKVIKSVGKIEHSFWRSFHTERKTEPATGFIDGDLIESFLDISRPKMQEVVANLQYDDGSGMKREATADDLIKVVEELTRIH
T4 sequence (Q9UKT9 whole entry): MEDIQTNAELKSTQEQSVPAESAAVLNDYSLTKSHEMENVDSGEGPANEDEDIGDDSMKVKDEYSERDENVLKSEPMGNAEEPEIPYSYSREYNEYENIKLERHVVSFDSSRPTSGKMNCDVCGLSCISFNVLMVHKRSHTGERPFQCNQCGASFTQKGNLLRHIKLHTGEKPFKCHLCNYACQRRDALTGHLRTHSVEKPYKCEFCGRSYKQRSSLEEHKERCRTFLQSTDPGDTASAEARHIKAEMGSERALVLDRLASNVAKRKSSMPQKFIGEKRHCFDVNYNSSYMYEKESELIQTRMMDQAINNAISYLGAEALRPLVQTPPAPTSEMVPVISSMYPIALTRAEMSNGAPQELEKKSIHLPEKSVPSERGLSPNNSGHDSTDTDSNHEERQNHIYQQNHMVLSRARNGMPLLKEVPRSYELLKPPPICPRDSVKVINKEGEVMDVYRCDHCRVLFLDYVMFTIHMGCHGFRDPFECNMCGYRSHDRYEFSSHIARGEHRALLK
T4 sequence (Q96SW2 whole entry): as the sequence (Q96SW2 whole entry) above
T4 sequence (Q16531 whole entry partner): as the sequence (Q16531 whole entry partner) above
T5 sequence (P48729 whole entry): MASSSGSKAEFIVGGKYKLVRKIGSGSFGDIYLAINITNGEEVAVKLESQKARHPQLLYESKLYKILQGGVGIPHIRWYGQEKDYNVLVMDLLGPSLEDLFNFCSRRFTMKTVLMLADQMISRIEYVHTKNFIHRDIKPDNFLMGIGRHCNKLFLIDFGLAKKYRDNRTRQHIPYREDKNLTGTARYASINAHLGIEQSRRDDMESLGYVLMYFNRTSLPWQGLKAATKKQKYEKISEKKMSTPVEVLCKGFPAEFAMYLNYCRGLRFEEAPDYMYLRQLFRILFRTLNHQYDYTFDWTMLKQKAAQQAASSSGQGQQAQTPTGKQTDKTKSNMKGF
T5 sequence (Q96SW2 whole entry): as the sequence (Q96SW2 whole entry) above
T5 sequence (Q16531 whole entry partner): as the sequence (Q16531 whole entry partner) above
T2 sequence (Q13422 whole entry): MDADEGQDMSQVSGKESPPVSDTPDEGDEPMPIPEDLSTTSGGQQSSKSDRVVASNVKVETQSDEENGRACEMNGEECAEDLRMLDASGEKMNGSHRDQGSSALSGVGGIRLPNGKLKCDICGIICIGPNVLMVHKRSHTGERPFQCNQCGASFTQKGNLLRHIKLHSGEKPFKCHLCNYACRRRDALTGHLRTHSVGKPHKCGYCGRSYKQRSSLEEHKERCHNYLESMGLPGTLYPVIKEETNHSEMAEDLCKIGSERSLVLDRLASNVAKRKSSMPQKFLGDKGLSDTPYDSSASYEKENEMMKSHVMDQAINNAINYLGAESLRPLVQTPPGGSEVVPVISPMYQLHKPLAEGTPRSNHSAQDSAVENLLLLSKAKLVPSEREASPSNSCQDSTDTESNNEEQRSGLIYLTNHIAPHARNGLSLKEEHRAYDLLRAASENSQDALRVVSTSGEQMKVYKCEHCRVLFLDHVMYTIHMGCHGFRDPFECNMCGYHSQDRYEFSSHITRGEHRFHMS
T2 sequence (Q96SW2 whole entry): as the sequence (Q96SW2 whole entry) above
T2 sequence (Q16531 whole entry partner): as the sequence (Q16531 whole entry partner) above
T6 sequence (P15170 whole entry): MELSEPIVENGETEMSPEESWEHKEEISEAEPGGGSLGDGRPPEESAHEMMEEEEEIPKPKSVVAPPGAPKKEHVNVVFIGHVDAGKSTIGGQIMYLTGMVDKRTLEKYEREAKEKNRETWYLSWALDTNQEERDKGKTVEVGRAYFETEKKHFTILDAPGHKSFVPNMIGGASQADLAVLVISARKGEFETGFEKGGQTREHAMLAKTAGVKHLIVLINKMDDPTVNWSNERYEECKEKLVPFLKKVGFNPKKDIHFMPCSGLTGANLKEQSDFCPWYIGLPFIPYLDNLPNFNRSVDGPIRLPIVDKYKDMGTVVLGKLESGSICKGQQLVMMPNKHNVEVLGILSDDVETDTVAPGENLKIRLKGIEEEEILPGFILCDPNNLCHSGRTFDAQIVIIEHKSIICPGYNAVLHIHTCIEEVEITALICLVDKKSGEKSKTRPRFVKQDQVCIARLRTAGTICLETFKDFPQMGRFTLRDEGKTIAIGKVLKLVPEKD
T6 sequence (Q96SW2 whole entry): as the sequence (Q96SW2 whole entry) above
T6 sequence (Q16531 whole entry partner): as the sequence (Q16531 whole entry partner) above
T7 sequence (Q96SW2 whole entry): as the sequence (Q96SW2 whole entry) above

Compound | Weel substrate protein remaining % (WEE1) | IKZF 1 substrate protein remaining % (IKZF1) | IKZF2 substrate protein remaining % (IKZF2) | IKZF3 substrate protein remaining % (IKZF3) | CK1a substrate protein remaining % (CK1α) | GSPT1 substrate protein remaining % (GSPT1) | IC50 [1] | IC50 (MM.1S) | IC50 (Jurkat) | IC50 [2, 4] | IC50 (MV-4-11) | IC50 (CCRF-CEM) | IC50 (NCI-H1975; [5]) | also measured
O=C1CCC(N2C(=O)c3ccc(CN4CC=C(c5nccc(Cl)c5Cl)CC4)cc3C2=O)C(=O)N1 (stereo not drawn) [GT-06608, 5-((3,4-dichloro-3',6'-dihydro-[2,4'-bipyridin]-1'(2'H)-yl)methyl)-2-(2,6-dioxopiperidin-3-yl)isoindoline-1,3-dione] | B (80%< substrate protein remaining %≤ 100%) | B (80%< substrate protein remaining %≤ 100%) | B (80%< substrate protein remaining %≤ 100%) | B (80%< substrate protein remaining %≤ 100%) | B (80%< substrate protein remaining %≤ 100%) | A (0% ≤ substrate protein remaining % ≤ 80%) | 1000 to 1500 nM | 100 to 500 nM | 100 to 500 nM | 100 to 500 nM | 10 to 50 nM | 100 to 500 nM | – | –
O=C1CCC(N2C(=O)c3ccc(CN4CCN(c5n[nH]c6cc(F)ccc56)CC4)cc3C2=O)C(=O)N1 (stereo not drawn) [GT-06632, 2-(2,6-dioxopiperidin-3-yl)-5-((4-(6-fluoro-1H-indazol-3-yl)piperazin-1-yl)methyl)isoindoline-1,3-dione] | A (0% ≤ substrate protein remaining % ≤ 80%) | A (0% ≤ substrate protein remaining % ≤ 80%) | A (0% ≤ substrate protein remaining % ≤ 80%) | A (0% ≤ substrate protein remaining % ≤ 80%) | A (0% ≤ substrate protein remaining % ≤ 80%) | A (0% ≤ substrate protein remaining % ≤ 80%) | 1500 to 1900 nM | 500 to 1000 nM | 100 to 500 nM | 100 to 500 nM | 10 to 50 nM | 50 to 100 nM | – | –
Cn1cc(C2=CCN(Cc3ccc4c(c3)C(=O)N(C3CCC(=O)NC3=O)C4=O)CC2)c2ccc(F)cc21 (stereo not drawn) [GT-06636, 2-(2,6-dioxopiperidin-3-yl)-5-((4-(6-fluoro-1-methyl-1H-indol-3-yl)-3,6-dihydropyridin-1(2H)-yl)methyl)isoindoline-1,3-dione] | A (0% ≤ substrate protein remaining % ≤ 80%) | A (0% ≤ substrate protein remaining % ≤ 80%) | A (0% ≤ substrate protein remaining % ≤ 80%) | A (0% ≤ substrate protein remaining % ≤ 80%) | A (0% ≤ substrate protein remaining % ≤ 80%) | A (0% ≤ substrate protein remaining % ≤ 80%) | 1000 to 1500 nM | 100 to 500 nM | 50 to 100 nM | 10 to 50 nM | 10 to 50 nM | 10 to 50 nM | 500 to 1000 nM | –
CC(C)c1cc2c(C3=CCN(Cc4ccc5c(c4)C(=O)N(C4CCC(=O)NC4=O)C5=O)CC3)ncnc2s1 (stereo not drawn) [GT-06656, 2-(2,6-dioxopiperidin-3-yl)-5-((4-(6-isopropylthieno[2,3-d]pyrimidin-4-yl)-3,6-dihydropyridin-1(2H)-yl)methyl)isoindoline-1,3-dione] | A (0% ≤ substrate protein remaining % ≤ 80%) | A (0% ≤ substrate protein remaining % ≤ 80%) | A (0% ≤ substrate protein remaining % ≤ 80%) | A (0% ≤ substrate protein remaining % ≤ 80%) | B (80%< substrate protein remaining %≤ 100%) | A (0% ≤ substrate protein remaining % ≤ 80%) | 1000 to 1500 nM | 100 to 500 nM | 50 to 100 nM | 10 to 50 nM | 10 to 50 nM | 10 to 50 nM | – | –
O=C1CCC(N2C(=O)c3ccc(CN4CC=C(c5ncnc6sc(-c7ccccc7)cc56)CC4)cc3C2=O)C(=O)N1 (stereo not drawn) [GT-06675, 2-(2,6-dioxopiperidin-3-yl)-5-((4-(6-phenylthieno[2,3-d]pyrimidin-4-yl)-3,6-dihydropyridin-1(2H)-yl)methyl)isoindoline-1,3-dione] | B (80%< substrate protein remaining %≤ 100%) | B (80%< substrate protein remaining %≤ 100%) | B (80%< substrate protein remaining %≤ 100%) | B (80%< substrate protein remaining %≤ 100%) | A (0% ≤ substrate protein remaining % ≤ 80%) | B (80%< substrate protein remaining %≤ 100%) | 500 to 1000 nM | 100 to 500 nM | 50 to 100 nM | 10 to 50 nM | 50 to 100 nM | 10 to 50 nM | 100 to 500 nM | IC50 (SR): 500 to 1000 nM; IC50 (TMD8; [6]): 500 to 1000 nM
O=C1CCC(N2C(=O)c3ccc(CN4CC(=C5CCOc6cc(F)ccc65)C4)cc3C2=O)C(=O)N1 (stereo not drawn) [GT-08134, 2-(2,6-dioxopiperidin-3-yl)-5-((3-(7-fluorochroman-4-ylidene)azetidin-1-yl)methyl)isoindoline-1,3-dione] | B (80%< substrate protein remaining %≤ 100%) | A (0% ≤ substrate protein remaining % ≤ 80%) | A (0% ≤ substrate protein remaining % ≤ 80%) | A (0% ≤ substrate protein remaining % ≤ 80%) | B (80%< substrate protein remaining %≤ 100%) | A (0% ≤ substrate protein remaining % ≤ 80%) | – | – | – | – | – | – | – | inhibition at 0.01 µM (CCRF-CEM; read-out: Inhibition rate (%) at 10 nM): 15 to 20%; inhibition at 0.5 µM (CCRF-CEM; read-out: Inhibition rate (%) at 500 nM): 60 to 80%; inhibition at 0.01 µM (Kasumi-1; Kasumi 1, read-out: Inhibition rate (%) at 10 nM): 10 to 15%; inhibition at 0.5 µM (Kasumi-1; Kasumi 1, read-out: Inhibition rate (%) at 500 nM): 60 to 80%; inhibition at 0.01 µM ([3]; MDA-MB-231, read-out: Inhibition rate (%) at 10 nM): 30 to 40%; inhibition at 0.5 µM ([3]; MDA-MB-231, read-out: Inhibition rate (%) at 500 nM): 20 to 30%
Nc1cccc2c1C(=O)N(C1CCC(=O)NC1=O)C2=O (stereo not drawn) [pomalidomide, reference compound] | – | – | – | – | – | – | – | 500 to 1000 nM | > 10000 nM | > 10000 nM | > 10000 nM | > 10000 nM | > 10000 nM | IC50 (SR; 96 h): > 10000 nM; IC50 (SR): > 10000 nM; IC50 (Vcap): > 10000 nM; IC50 (TMD8; TMD8, 96 h, read-out: inhibitory activity (IC50, nM) against tumor cells proliferation, TMD8): 5000 to 10000 nM; IC50 (TMD8; [6]): 5000 to 10000 nM; IC50 (MM.1R): > 10000 nM; IC50 (SW620): > 10000 nM; IC50 (Jurkat; 96 h): > 10000 nM; IC50 (CAL-62): > 10000 nM; IC50 ([2]; MOLT-4, 96 h, read-out: inhibitory activity (IC50, nM) against tumor cells proliferation, Molt 4): > 10000 nM; IC50 (MGC803): > 10000 nM; IC50 (CCRF-CEM; 96 h): > 10000 nM; IC50 (NCI-H1975; NCI-H1975, 96 h, read-out: inhibitory activity (IC50, nM) against tumor cells proliferation, H1975): > 10000 nM; IC50 ([3]; MDA-MB-231, 96 h, read-out: inhibitory activity (IC50, nM) against tumor cells proliferation, MDA-MB-231): > 10000 nM
